Measured values: BigSolDB 2.1

O=Cc1cccc([N+](=O)[O-])c1 showed a solubility (mole fraction) (in DMF, 273.15 K) of 0.324, a solubility (mole fraction) (in DMF, 275.65 K) of 0.347 and a solubility (mole fraction) (in DMF, 278.15 K) of 0.368. It also gave a solubility (mole fraction) (in DMF, 280.65 K) of 0.393, a solubility (mole fraction) (in DMF, 283.15 K) of 0.419 and a solubility (mole fraction) (in DMF, 285.65 K) of 0.447. The solubility (mole fraction) (in DMF, 288.15 K) was 0.472, the solubility (mole fraction) (in DMF, 290.65 K) was 0.503 and the solubility (mole fraction) (in DMF, 293.15 K) was 0.528. The solubility (mole fraction) (in DMF, 295.65 K) was 0.561, the solubility (mole fraction) (in DMF, 298.15 K) was 0.594 and the solubility (mole fraction) (in DMF, 300.65 K) was 0.627. For the same molecule, the solubility (mole fraction) (in DMF, 303.15 K) was 0.66, the solubility (mole fraction) (in acetic acid, 290.65 K) was 0.159 and the solubility (mole fraction) (in acetic acid, 293.15 K) was 0.182. For the same molecule, the solubility (mole fraction) (in acetic acid, 295.65 K) was 0.206, the solubility (mole fraction) (in acetic acid, 298.15 K) was 0.235 and the solubility (mole fraction) (in acetic acid, 300.65 K) was 0.267. It also gave a solubility (mole fraction) (in acetic acid, 303.15 K) of 0.304, a solubility (mole fraction) (in acetone, 273.15 K) of 0.164 and a solubility (mole fraction) (in acetone, 275.65 K) of 0.184. It also gave a solubility (mole fraction) (in acetone, 278.15 K) of 0.206, a solubility (mole fraction) (in acetone, 280.65 K) of 0.231 and a solubility (mole fraction) (in acetone, 283.15 K) of 0.258. It also gave a solubility (mole fraction) (in acetone, 285.65 K) of 0.289, a solubility (mole fraction) (in acetone, 288.15 K) of 0.322 and a solubility (mole fraction) (in acetone, 290.65 K) of 0.359. It also gave a solubility (mole fraction) (in acetone, 293.15 K) of 0.401, a solubility (mole fraction) (in acetone, 295.65 K) of 0.445 and a solubility (mole fraction) (in acetone, 298.15 K) of 0.487. It also gave a solubility (mole fraction) (in acetone, 300.65 K) of 0.534, a solubility (mole fraction) (in acetone, 303.15 K) of 0.585 and a solubility (mole fraction) (in acetonitrile, 273.15 K) of 0.165. It also gave a solubility (mole fraction) (in acetonitrile, 275.65 K) of 0.183, a solubility (mole fraction) (in acetonitrile, 278.15 K) of 0.204 and a solubility (mole fraction) (in acetonitrile, 280.65 K) of 0.226. It also gave a solubility (mole fraction) (in acetonitrile, 283.15 K) of 0.251, a solubility (mole fraction) (in acetonitrile, 285.65 K) of 0.277 and a solubility (mole fraction) (in acetonitrile, 288.15 K) of 0.307. The solubility (mole fraction) (in acetonitrile, 290.65 K) was 0.338, the solubility (mole fraction) (in acetonitrile, 293.15 K) was 0.371 and the solubility (mole fraction) (in acetonitrile, 295.65 K) was 0.409. The solubility (mole fraction) (in acetonitrile, 298.15 K) was 0.449, the solubility (mole fraction) (in acetonitrile, 300.65 K) was 0.49 and the solubility (mole fraction) (in acetonitrile, 303.15 K) was 0.532. The solubility (mole fraction) (in cyclohexane, 283.15 K) was 0.00147, the solubility (mole fraction) (in cyclohexane, 285.65 K) was 0.00175 and the solubility (mole fraction) (in cyclohexane, 288.15 K) was 0.00204. It also gave a solubility (mole fraction) (in cyclohexane, 290.65 K) of 0.0024, a solubility (mole fraction) (in cyclohexane, 293.15 K) of 0.00283 and a solubility (mole fraction) (in cyclohexane, 295.65 K) of 0.00334. It also gave a solubility (mole fraction) (in cyclohexane, 298.15 K) of 0.00394, a solubility (mole fraction) (in cyclohexane, 300.65 K) of 0.00456 and a solubility (mole fraction) (in cyclohexane, 303.15 K) of 0.0053. The solubility (mole fraction) (in ethanol, 273.15 K) was 0.0358, the solubility (mole fraction) (in ethanol, 275.65 K) was 0.0416 and the solubility (mole fraction) (in ethanol, 278.15 K) was 0.048. The solubility (mole fraction) (in ethanol, 280.65 K) was 0.0555, the solubility (mole fraction) (in ethanol, 283.15 K) was 0.0637 and the solubility (mole fraction) (in ethanol, 285.65 K) was 0.0736. For the same molecule, the solubility (mole fraction) (in ethanol, 288.15 K) was 0.0844, the solubility (mole fraction) (in ethanol, 290.65 K) was 0.0959 and the solubility (mole fraction) (in ethanol, 293.15 K) was 0.109. For the same molecule, the solubility (mole fraction) (in ethanol, 295.65 K) was 0.125, the solubility (mole fraction) (in ethanol, 298.15 K) was 0.141 and the solubility (mole fraction) (in ethanol, 300.65 K) was 0.161. It also gave a solubility (mole fraction) (in ethanol, 303.15 K) of 0.183, a solubility (mole fraction) (in ethyl acetate, 273.15 K) of 0.146 and a solubility (mole fraction) (in ethyl acetate, 275.65 K) of 0.164. It also gave a solubility (mole fraction) (in ethyl acetate, 278.15 K) of 0.185, a solubility (mole fraction) (in ethyl acetate, 280.65 K) of 0.206 and a solubility (mole fraction) (in ethyl acetate, 283.15 K) of 0.229. For the same molecule, the solubility (mole fraction) (in ethyl acetate, 285.65 K) was 0.256, the solubility (mole fraction) (in ethyl acetate, 288.15 K) was 0.285 and the solubility (mole fraction) (in ethyl acetate, 290.65 K) was 0.316. The solubility (mole fraction) (in ethyl acetate, 293.15 K) was 0.348, the solubility (mole fraction) (in ethyl acetate, 295.65 K) was 0.385 and the solubility (mole fraction) (in ethyl acetate, 298.15 K) was 0.425. The solubility (mole fraction) (in ethyl acetate, 300.65 K) was 0.465, the solubility (mole fraction) (in ethyl acetate, 303.15 K) was 0.511 and the solubility (mole fraction) (in isopropanol, 273.15 K) was 0.00629. It also gave a solubility (mole fraction) (in isopropanol, 275.65 K) of 0.00735, a solubility (mole fraction) (in isopropanol, 278.15 K) of 0.0086 and a solubility (mole fraction) (in isopropanol, 280.65 K) of 0.00997. It also gave a solubility (mole fraction) (in isopropanol, 283.15 K) of 0.0115, a solubility (mole fraction) (in isopropanol, 285.65 K) of 0.0133 and a solubility (mole fraction) (in isopropanol, 288.15 K) of 0.0153. The solubility (mole fraction) (in isopropanol, 290.65 K) was 0.0176, the solubility (mole fraction) (in isopropanol, 293.15 K) was 0.0203 and the solubility (mole fraction) (in isopropanol, 295.65 K) was 0.0232. It also gave a solubility (mole fraction) (in isopropanol, 298.15 K) of 0.0267, a solubility (mole fraction) (in isopropanol, 300.65 K) of 0.0305 and a solubility (mole fraction) (in isopropanol, 303.15 K) of 0.035. The solubility (mole fraction) (in methanol, 273.15 K) was 0.0889, the solubility (mole fraction) (in methanol, 275.65 K) was 0.103 and the solubility (mole fraction) (in methanol, 278.15 K) was 0.118. The solubility (mole fraction) (in methanol, 280.65 K) was 0.136, the solubility (mole fraction) (in methanol, 283.15 K) was 0.156 and the solubility (mole fraction) (in methanol, 285.65 K) was 0.178. The solubility (mole fraction) (in methanol, 288.15 K) was 0.203, the solubility (mole fraction) (in methanol, 290.65 K) was 0.23 and the solubility (mole fraction) (in methanol, 293.15 K) was 0.261. For the same molecule, the solubility (mole fraction) (in methanol, 295.65 K) was 0.295, the solubility (mole fraction) (in methanol, 298.15 K) was 0.332 and the solubility (mole fraction) (in methanol, 300.65 K) was 0.373. The solubility (mole fraction) (in methanol, 303.15 K) was 0.419, the solubility (mole fraction) (in n-butanol, 273.15 K) was 0.0206 and the solubility (mole fraction) (in n-butanol, 275.65 K) was 0.0235. For the same molecule, the solubility (mole fraction) (in n-butanol, 278.15 K) was 0.0274, the solubility (mole fraction) (in n-butanol, 280.65 K) was 0.0314 and the solubility (mole fraction) (in n-butanol, 283.15 K) was 0.0357. For the same molecule, the solubility (mole fraction) (in n-butanol, 285.65 K) was 0.041, the solubility (mole fraction) (in n-butanol, 288.15 K) was 0.0466 and the solubility (mole fraction) (in n-butanol, 290.65 K) was 0.0529. The solubility (mole fraction) (in n-butanol, 293.15 K) was 0.0596, the solubility (mole fraction) (in n-butanol, 295.65 K) was 0.0677 and the solubility (mole fraction) (in n-butanol, 298.15 K) was 0.0764. It also gave a solubility (mole fraction) (in n-butanol, 300.65 K) of 0.086, a solubility (mole fraction) (in n-butanol, 303.15 K) of 0.0973 and a solubility (mole fraction) (in n-propanol, 273.15 K) of 0.0254. It also gave a solubility (mole fraction) (in n-propanol, 275.65 K) of 0.0293, a solubility (mole fraction) (in n-propanol, 278.15 K) of 0.0338 and a solubility (mole fraction) (in n-propanol, 280.65 K) of 0.0385. For the same molecule, the solubility (mole fraction) (in n-propanol, 283.15 K) was 0.0442, the solubility (mole fraction) (in n-propanol, 285.65 K) was 0.0505 and the solubility (mole fraction) (in n-propanol, 288.15 K) was 0.0575. It also gave a solubility (mole fraction) (in n-propanol, 290.65 K) of 0.0648, a solubility (mole fraction) (in n-propanol, 293.15 K) of 0.0729 and a solubility (mole fraction) (in n-propanol, 295.65 K) of 0.0833. The solubility (mole fraction) (in n-propanol, 298.15 K) was 0.0942, the solubility (mole fraction) (in n-propanol, 300.65 K) was 0.106 and the solubility (mole fraction) (in n-propanol, 303.152 K) was 0.12. For the same molecule, the solubility (mole fraction) (in toluene, 273.15 K) was 0.0957, the solubility (mole fraction) (in toluene, 275.65 K) was 0.11 and the solubility (mole fraction) (in toluene, 278.15 K) was 0.126. The solubility (mole fraction) (in toluene, 280.65 K) was 0.144, the solubility (mole fraction) (in toluene, 283.15 K) was 0.167 and the solubility (mole fraction) (in toluene, 285.65 K) was 0.188. The solubility (mole fraction) (in toluene, 288.15 K) was 0.215, the solubility (mole fraction) (in toluene, 290.65 K) was 0.245 and the solubility (mole fraction) (in toluene, 293.15 K) was 0.276. The solubility (mole fraction) (in toluene, 295.65 K) was 0.31, the solubility (mole fraction) (in toluene, 298.15 K) was 0.347 and the solubility (mole fraction) (in toluene, 300.65 K) was 0.385. The solubility (mole fraction) (in toluene, 303.15 K) was 0.428.
